What was measured:
[1] = Chromatographic hydrophobicity index (CHI) by RP-HPLC in buffered methanol; assay type: physicochemical; conditions: for CHIMeOH (b): standard compounds, isochratic and gradient elution of standard mixture; for CHIMeOH: buffered methanol pH 7.0, Econosil C18 150 mm, Eq. (4)
Method: (§1) We used Dynamax liquid chromatograph (Varian Chromatography Systems) with PDA-2 photodiode array UV detector, controlled by the Dynamax PC Chromatography Data System (v. 1.9) software and Dynamax dual pump solvent delivery system, model SD-200. […] Cucurbitacins analytical separation was optimized on Alltima C18 (Alltech; 250 mm×4.6 mm, 5 μm) HPLC column, at gradient elution in acetonitrile (ACN, 30-70% ACN in 57 min), and in MeOH (60-75% MeOH in 50 min). Cucurbitacins stock concentration of 10^−2M in DMSO:ethanol (1:1) was standardized against pure cucurbitacin I (Indofine Chemical Company, Hillsborough, N.J.) by analytical HPLC means. Compounds CHI was measured in both ACN, by using Alltima C18 column, and in MeOH, by using Econosil C18 column (Alltech; 150 mm×4.6 mm, 5 μm). Analytical separations were conducted at a flow rate of 1 ml/min. The aqueous phase was buffered for the CHI measurement. For this purpose, solid ammonium acetate (Fisher Sci. Co., Fair Lawn, N.J.) was dissolved in deionized distilled water at 50 mM final concentration and its pH adjusted to 7.0.
A standard mixture of 10 compounds including 19-21, 23-27, aniline (compound 28) and bromobenzene (compound 29), dissolved in MeOH, was injected at five isochratic elution, at 40, 45, 50, 55, and 60% MeOH. Then the mixture was injected at fast gradient elution to establish the correlation from Eq. (1). The fast linear gradient elution was optimized for 30-100% MeOH in aqueous buffer with 10 min runtime.
(§2) Cucurbitacins lipophilicity was measured by RP-HPLC. […] Due to its high viscosity, aqueous MeOH required a shorter column than the one applied for ACN. First, the C18 columns were calibrated against a standard mixture, and the relationships established between the fast gradient tR and φ0 or published CHI (see Eqs. (2)-(4) from Table 2). Second, cucurbitacins were injected at fast gradient elution under similar conditions, and their CHI calculated (Table 4) from Eqs. (2)-(4). Eqs.

[2] = standard compounds; gradient elution and correlation with published data; cited from earlier work
[3] = test system: HepG2 cells; assay: Cucurbitacins cytotoxicity on HepG2 cells (MTT viability assay); assay type: cell-based, human
Method: HepG2 (human hepatocellular carcinoma, ATCC) cells were grown in EMEM (Gibco, Grand Island, N.Y.) supplemented with 10% fetal bovine serum (FBS), and 1% penicillin/fungizone mixture (Gibco). Thabrew's optimized procedure (Thabrew et al., J. Pharm. Pharmcol. 49 (1994) 1442, the entire disclosure of which is herein incorporated by reference) was followed. Cells were batch cultured for 10 days, then seeded at concentration of 30,000 cells/well in fresh media in 96-well microtiter plastic plates at 37° C. for a day. Then cells were exposed to different concentrations of cucurbitacins at final volume of 100 μl/well. Five-fold serial dilution of compounds was carried out in the plate for five consecutive wells. After 24 h of incubation with chemicals, live cells were visualized using the MTT viability assay (Promega, Madison, Wis.). The absorbance was measured at 570 nm. Negative (without cells) and positive (without test chemicals) controls were also incubated with each plate. […] At least three reproducible experiments were performed per compound with three replicate wells per concentration.
Cells were challenged with cu-curbitacins at various concentrations for a day and then live cells quantified with MTT dye. This period of time measures exclusively compounds cytotoxicity, while longer incubation time may lead to interference from metabolites.

[4] = Chromatographic hydrophobicity index (CHI) by RP-HPLC in buffered acetonitrile; assay type: physicochemical; parameters: key: CHI = φ0 (isocratic hydrophobicity index), = A·tR + B; ACN % scale; conditions: for CHIACN1: buffered acetonitrile pH 7.0, Alltima C18 250 mm, Eq. (2) from isocratic φ0; for CHIACN2: buffered acetonitrile pH 7.0, Eq. (3) calibrated against published CHI
Method: as §1
All standard compounds were purchased from Acros (Acros Organics, NJ). The chromatographic lipophilicity or hydrophobicity was determined applying Valkó's technique (Valkó et al., Anal. Chem. 69 (1997) 2022, the entire disclosure of which is herein incorporated by reference). A standard mixture of seven compounds was prepared in solution: theophylline (compound 19), benzimidazole (compound 20), acetophenone (compound 21), indole (compound 22), propiophenone (compound 23), butyrophenone (compound 24), and valerophenone (compound 25). […] The retention factor, log k=log((tR-t0)/t0), was calculated for each analyte from five good injections of […] sample. The dead time (t0) was measured by injecting NaNO3 together with the sample. Then, the log k values were plotted against isocratic ACN concentrations to establish the linear regression equations for each analyte. From each straight line the isocratic hydrophobicity index was computed, φ0=(intercept/slope). Further, the calibration mixture was injected at fast gradient elution, 0-22 min 0-100% ACN, and three additional minutes at 100% ACN. The φ0 values for the test compounds were plotted against gradient retention time and the linear equation determined from the following equation: φ0=CHI=AtR+B (1)
The gradient elution conditions were similar to the one from the first approach.
as §2

[5] = test system: HSC-T6 cells; assay: Serum-driven HSC-T6 proliferation, experiment 1 (4 h challenge, two days drug-free growth); assay type: cell-based, rat; conditions: for EC50: HSC-T6, 4 h challenge, then two days drug-free media
Method: The proliferation effect of serum on HSC-T6 cells was optimized and cucurbitacin antiproliferative activity was measured. Serum contains a large number of growth factors, hormones and other nutrients, which help cells to grow and multiply. Several trials were conducted. In experiment 1, cells were challenged with cucurbitacin analogs for 4 h and then cells were grown in drug-free media for two additional days.
HSC-T6 cells were photographed under phase-contrast microscope to record possible changes in cell morphology during experiment 1. […] We are monitoring specifically the effect of compound on the cells, cell recovery after 4 h challenge, and relative cell proliferation. […] Live cells are quantified at the end of the assay (row 4) with MTT dye.
(§3) We established several experimental conditions such as 4 hours of incubation time with cucurbitacin, and 2 day cell incubation with fresh media after challenging with cucurbitacin (Exp. 1). Other experiments involved addition of cucurbitacin for 24 hours over starved cells (Exp. 2) vs. proliferating cells (Exp. 3), and one day incubation of cells with fresh media after challenge. […] Because of that, the challenge time was increased to 24 hours (Exp. 2 and 3).
We modified this approach. Our assay included a second control (ZC) supplemented with no serum intended to measure cucurbitacin anti-proliferation effect relative to the number of cells generated during challenge instead of the total number of cells present in each well.

[6] = test system: HSC-T6 cells; assay: Serum-driven HSC-T6 proliferation, experiment 3 (24 h, proliferating cells); assay type: cell-based, rat; conditions: HSC-T6, 24 h, proliferating cells; read-out: Experiment 3 EC50 (A)
Method: To overcome this problem, the amount of incubation time was increased to 24 h, and cucurbitacin activity measured on starved (Exp. 2) or proliferative (Exp. 3) cells (Table 8). Cells turned quiescent when serum was not supplemented for one day (Exp. 2). Activity of a few compounds was monitored on quiescent cells, and their activity compared to the ones measured on proliferating cells (Exp. 3).
as §3, with “challenge. The 4 hour incubation period with cucurbitacin triggered anti-proliferation effect. This effect, however, was hindered by a second cycle of cell proliferation during the two-day cell growth period (see silybin, E and I glucosides, and for I-nPr).” for “challenge.”
In experiment 3, only 40% of the cells divided. The ratio of EC50 values for exp. 2 and exp. 3 varied between 3.6 and 12.7. This may indicate differential cytotoxicity of silybin and cucurbitacin analogs over quiescent and active stellate cells. In other words, compounds show higher anti-proliferative activity on active cells than on quiescent cells.

[7] = test system: HSC-T6 cells; assay: Cytotoxicity on HSC-T6 cells (experiment 3); assay type: cell-based, rat; conditions: read-out: Experiment 3 IC50 (T)
Text: Cytotoxicity of all cucurbitacin analogs was additionally measured in experiment 3 (Table 8).

[8] = test system: HepG2 cells; assay: cells
Text: Experimental conditions were standardized on silybin. […]
The ratio of IC50-to-EC50 (hereafter T/A) is also indicated in this table, which gives the margin between toxic and cytoprotective concentrations.

Row | SMILES | CHIMeOH (b) [1] | CHIACN (c) [2] | IC50 ([3]; Table 4, 24 h incubation, MTT) [µM] | IC50 ([3]; Table 5) [µM] | CHIACN1 [4] | CHIACN2 [4] | CHIMeOH [1] | Experiment 1 anti-proliferation activity ([5]; measured at 2-6 μM) | EC50 [6] [µM] | IC50 [7] [µM] | EC50 [5] [µM] | IC50 ([3]; Table 7) [µM] | cytoprotection on HepG2 cells ([8]; at 6.25% of IC50, against CCl4) | cytoprotection on HepG2 cells ([8]; at 12.5% of IC50, against CCl4) | cytoprotection on HepG2 cells ([8]; at 20% of IC50, against CCl4) | cytoprotection on HepG2 cells ([8]; at 50% of IC50, against CCl4) | EC50 ([8]; read-out: EC50 cytoprotection, Table 7, HepG2 against CCl4 toxicity, estimated) [µM]
1 | Cn1c(=O)c2nc(-c3ccccc3)[nH]c2n(C)c1=O [Ph-theophylline (27), phenyltheophylline, reference compound] | 61.61 ± 0.04 | 52.04 |  |  |  |  |  |  |  |  |  |  |  |  |  |  | 
2 | COc1cc2c(c(OC)c1OC)-c1ccc(OC)c(=O)cc1[C@@H](NC(C)=O)CC2 [Colchicine (26), colchicine, reference compound] | 57.56 + 0.04 | 41.37 |  |  |  |  |  |  |  |  |  |  |  |  |  |  | 
3 | CCCOC1=CC2C(=CCC3C2(C)C(=O)CC2(C)C(C(C)(O)C(=O)C=CC(C)(C)O)C(O)CC32C)C(C)(C)C1=O (stereo not shown) [I-nPr] |  |  | 5 | 5 ± 0.5 | 75.92 | 83.13 | 72.88 | ˜18%^b^ | 0.33 | 2.5 |  |  |  |  |  |  | 
4 | CCCOC1=CC2C(=CCC3C2(C)C(=O)CC2(C)C(C(C)(O)C(=O)C=CC(C)(C)OC(C)=O)C(O)CC32C)C(C)(C)C1=O (stereo not shown) [E-nPr] |  |  |  |  | 88.34 | 102.37 | 77.66 |  | 0.34 | 2.8 | 2.28 |  |  |  |  |  | 
5 | CC(C)(O)/C=C/C(=O)[C@](C)(O)[C@H]1[C@H](O)C[C@@]2(C)[C@@H]3CC=C4[C@@H](C=C(O)C(=O)C4(C)C)[C@]3(C)C(=O)C[C@]12C [I, cucurbitacin I] |  |  | 15.8 | 15.8 ± 6.7 | 63.27 | 63.53 | 63.86 |  | 0.02 | 3.6 | 0.36 | 15.8 | 4.55 ± 0.64 | 17.50 ± 1.32 | 50.09 ± 1.02 | 54.75 ± 0.29 | 3.2
6 | CCOC1=CC2C(=CCC3C2(C)C(=O)CC2(C)C(C(C)(O)C(=O)C=CC(C)(C)OC(C)=O)C(O)CC32C)C(C)(C)C1=O (stereo not shown) [E-Et] |  |  | 5.1 | 5.1 ± 0.9 | 82.76 | 93.73 | 74.25 |  | 0.27 | 3.5 | 5.6 |  |  |  |  |  | 
